Measurements as given in patent US20040028684A1, “Cancer diagnosis and assays for screening anti-cancer agents” (priority 2000, published 2004).

System: RMP1
Assay: Rapamycin sensitive signaling on human RMP1: immunoblot of RMP in insulin-induced HEK293 cells
Format: cell-based
Details: serum-deprived HEK293 cells, 50 nM insulin, after 1 h induction, maintained throughout 8 h, no rapamycin
Procedure: Human Embryonic kidney (HEK293) cells are grown in DMEM+10% FCS. Exponentially growing HEK 293 cells are deprived of serum overnight, and then induced with 50 nM insulin in the presence or absence of 20 nM rapamycin. Protein extracts were prepared from cells harvested at 0 h, 1 h, 2 h, 4 h and 8 h after insulin induction. The cell extracts were subjected to SDS-polyacrylamide gel electrophoresis and the resulting gels were analyzed by immuno-blotting using a rabbit polyclonal anti-human RMP antibody. Antibodies specific for RMP are easily prepared using standard laboratory practices. A secondary antibody specific for rabbit antibodies, labelled was used to visualize RMP on the immunoblot using routine procedures.
In the presence of insulin and amino acids (in the culture medium in this example), RMP is present as a slower migrating form, indicating a phosphorylated form. Under these conditions, the cells continue to synthesize […]. With the addition of rapamycin, RMP is present as a fast migrating form and blocks the synthesis of […]

insulin was tested, and the “slower migrating form of RMP” value was “induced”.
